Values joined by “and” are separate entries in the source; they are usually repeats but may differ in a detail not shown here. Equal values may be shown once. Marks after values point to notes of the source that are not given here.
What was measured:
[1] = system: methyl cholanthrene A tumor; test: Antineoplastic activity against transplanted methyl cholanthrene A tumor, evaluation by size of tumor (Examples 1 to 6); assay type: in vivo, female BALB/C mice; conditions: No. 3, ip×9; for Change in body weight: body weight 13 days after transplantation; for T/control: tumor weight
Experimental: By dissolving alkylammonium salt of polymolybdic acid [NH3C3H7(iso)]s [Mo7O24] • 3H2O (Compound A) and other compounds (Compounds B to D) severally in distilled water, aqueous solutions containing the compounds in a fixed concentration of 10 mg/ml were obtained. These aqueous solutions were administered to female BALB/C mice (five weeks old) to which methyl cholanthrene A tumor had been transplanted to test the compounds for antineoplastic activity. To be specific, methyl cholanthrene A was transplanted to the mice in a ratio of 1.0 x 10^5 cells per mouse and the aqueous solutions were continuously administered to the mice by intraperitoneal injection ([…]) for nine days. On elapse of 14 days following the start of the administration, the tumors in the mice were measured. For comparison, mice to which no antineoplastic .drug was administered and mice to which aminonitroso urea was administered were tested by following the procedure described above.

[2] = system: methyl cholanthrene A; test: Methyl cholanthrene A tumor, evaluation by extension of period of survival (Examples 7 to 11); assay type: in vivo, female BALB/C mice; conditions: No. 2; for Average number of days of survival / Number of toxically killed mice/total number of mice / T/control: ip×9; for Change in body weight: ip×9, D1~D9; for T/control: days of survival
Experimental: The aforementioned compounds, A to D, were severally dissolved in distilled water to obtain aqueous solutions containing the compounds in a fixed concentration of 10 mg/ml. To the female BALB/C mice (five weeks old) to which methyl cholanthrene A had been transplanted in a ratio of 1.0 x 10^5 cells per mouse, […] to determine the mices' periods of survival. For comparison, mice to which no antineoplastic drug was administered and mice to which aminonitroso urea was administered were similarly tested.

[3] = system: methyl cholanthrene A; test: Methyl cholanthrene A tumor, evaluation by elongation of period of survival (Examples 31, 34 and 35); assay type: in vivo, female BALB/C mice; conditions: for Average number of days of survival ±SE / ILS / Number of mice of no tumor/total number of mice: 25 mg/kg, ip × 9; for Number of mice of no tumor/total number of mice: observed 60 days after transplantation; for Change in body weight after elapse of 10 days: mouse, in vivo
Experimental: The active compounds, M to 0, mentioned above were severally dissolved in distilled water to obtain aqueous solutions containing the compounds in a fixed concentration of 10 mg/ml. To be specific, to female BALB/C mice (five weeks old) to which methyl cholanthrene A had been transplanted in a ratio of 1.0 x 10^5 cells per mouse, […] for 9 consecutive days to determine the mice's periods of survival. For comparison, mice to which no aqueous solution was administered and mice to which aminonitrosourea was administered were similarly tested.

[4] = system: methyl cholanthrene A tumor; test: Methyl cholanthrene A tumor, evaluation by size of tumor (Examples 31 to 33); assay type: in vivo, female BALB/C mice; design: Average weight of tumor ± SE / Range of average tumor weight after elapse of 21 days ± SE: unit not given here; conditions: 25 mg/kg, ip × 9; for Average weight of tumor ± SE: after elapse of 14 days
Experimental: A heteropoly acid salt, Na5[IM06O24]•34H2O (Compound M), and other compounds (Compounds N and O ) were severally dissolved in distilled water to obtain aqueous solutions containing the salts in a fixed concentration of 10 mg/ml. To female BALB/C mice (five weeks old) to which methyl cholanthrene A tumor had been transplanted, the aqueous solutions were administered to test the compounds for antineoplastic activity. To be specific, the methyl cholanthrene A was transplanted to the mice at a ratio of 1.0 x 10^5 cells per mouse and the aqueous solutions were administered ([…]) for 9 consecutive days by intraperitoneal injection. On elapse of 14 and 21 days after the stop of the administration, the sizes of tumors in the mice were measured. For comparison, mice to which no aqueous solution was administered and mice to which aminonitrosourea was administered were similarly tested.

[5] = system: human breast cancer (MX-1); test: Human breast cancer MX-1, SRC method (Examples 29 and 30); assay type: in vivo, female ICR/cd-1 mice; conditions: for antineoplastic activity: result in words
[6] = system: MM-46 breast cancer; assay type: in vivo, female C3H/He mice; conditions: 100 mg/kg, ip × 9
Experimental: The active compounds, I to L, mentioned above were severally dissolved in distilled water to obtain aqueous solutions containing the compounds in a fixed concentration of 10 mg/ml. To female C3H/He mice (five weeks old) to which the MM-46 breast cancer had been transplanted in a ratio of 1.0 x 10^5 cells per mouse, the aqueous solutions were continuously administered at a dose of 100 mg/kg of body weight by intraperitoneal injection for nine days to determine the mice's periods of survival. For comparison, mice to which no aqueous solution was administered and mice to which aminonitrosourea was administered were similarly tested.

[7] = system: MM-46 breast cancer; test: MM-46 breast cancer, evaluation by size of tumor (Examples 21 to 24); assay type: in vivo, female C3H/He mice; conditions: for Average weight of tumor / Number of tumorless mice /total number of mice / T/control: 100 mg/kg; for Average weight of tumor / Number of tumorless mice /total number of mice: ip × 9; for T/control: ip×9, tumor weight
Experimental: A polymolybdate, K6[Mo7022(02)2]8H20 (Compound I), and the aforementioned other compounds (Compounds J to L) were severally dissolved in distilled water to obtain aqueous solutions containing the compounds in a fixed concentration of 10 mg/mi. To female C3H/He mice (five weeks old) to which MM-46 breast cancer had been transplanted, the aqueous solutions were administered to test the compounds for antineoplastic activity. To be more specific, the MM-46 breast cancer was transplanted to the mice at a ratio of 5.0 x 10^5 cells per mouse and the aqueous solutions were continuously administered (at a dose of 100 mg/kg of body weight) by intraperineal injection for nine days. On elapse of 14 days after the stop of the administration, the size of tumor in the mice was measured. For comparison, mice to which the aqueous solution was not administered and mice to which aminonitroso urea was administered were similarly tested.

[8] = 100 mg/kg ip(×5), individual mice
[9] = 100 mg/kg ip(×5), individual mice, listed as Compound II
[10] = 200 mg/kg ip(×5), individual mice, listed as Compound II

Compound | Average number of days of survival ±SE [3] | ILS [3] [%] | Number of mice of no tumor/total number of mice [3] | Change in body weight after elapse of 10 days [3] | Average weight of tumor ± SE [4] | T/C ([4]; tumor weight after 14 days) | T/C ([4]; tumor weight after 21 days) | T/C ([5]; 100 mg/kg ip(×5)) | T7/To ([5]; 100 mg/kg ip(×5), group mean) | antineoplastic activity [5] | Average number of days of survival [6] | Average weight of tumor after 14 days [6] | Ratio of elongation of life (5) [6] | Average weight of tumor [7] | Number of tumorless mice /total number of mice [7] | T/control [7] | also measured
[NH3C3H7(iso)]6 [Mo7O24H] mixture [Compound C] | – | – | – | – | – | – | – | – | – | – | – | – | – | – | – | – | Average weight of tumor ([1]; 25 mg/kg): 1425.2±130.6(10) mg; Number of tumorless mice /total number of mice ([1]; 25 mg/kg): 0/10; Change in body weight ([1]; 25 mg/kg): -2.19 g; T/control ([1]; 25 mg/kg): 0.553; Average number of days of survival ([2]; 25 mg/kg): 30.2±2.0(10) days; Number of toxically killed mice/total number of mice ([2]; 25 mg/kg): 0/10; Change in body weight ([2]; 25 mg/kg): -2.19 g; T/control ([2]; 25 mg/kg): 134.2
[NH4]3 H6 [CoMo6O24] • 7H20 [Compound N] | 39.30±3.73(10)*** * days | 57.0 | 2/10 | (+)0.56 | 448.5±166.0 (10) | 0.600 | 0.301 | – | – | – | – | – | – | – | – | – | Range of average tumor weight after elapse of 21 days ± SE [4]: 693.6±144.3 (9)
Na3H6 [CrMo6O24] • 8H20 [Compound O] | 35.10±3.16(10)*** * days | 41.0 | 0/10 | (+)1.22 | 585.6±166.8 (10) | 0.784 | 0.832 | – | – | – | – | – | – | – | – | – | –
O.O.[NH4+].[NH4+].[NH4+].[NH4+].[NH4+].[NH4+].[O]=[Mo](=[O])([O-])[O][Mo](=[O])(=[O])[O][Mo](=[O])([O-])([O-])[O][Mo](=[O])(=[O])[O][Mo](=[O])([O-])([O-])[O][Mo](=[O])(=[O])[O][Mo](=[O])(=[O])[O-] [Compound D, [NH4]6 [Mo7O24]. 2H20] | – | – | – | – | – | – | – | – | – | – | – | – | – | – | – | – | Average weight of tumor ([1]; 100 mg/kg): 1790.5±189.3(8) mg; Number of tumorless mice /total number of mice ([1]; 100 mg/kg): 0/8; Change in body weight ([1]; 100 mg/kg): +1.20 g; T/control ([1]; 100 mg/kg): 0.695; Average number of days of survival ([2]; 100 mg/kg): 33.3±2.7(8) days; Number of toxically killed mice/total number of mice ([2]; 100 mg/kg): 0/8; Change in body weight ([2]; 100 mg/kg): +1.20 g; T/control ([2]; 100 mg/kg): 133.3
K6 [Mo7O22(O2)2] • 8H2O [Compound I] | – | – | – | – | – | – | – | 57.28 8* % | 0.790±0.077 | strong antineoplastic activity | 33.1±2.9(8) days | 1135 ±185(8) mg | 100.8 | 1134.9±184.5(1 0) mg | 0/10 | 0.397 | W7/Wo ([5]; 100 mg/kg ip(×5), group mean): 1.068±0.008; Body weight 7 days after transplantation (W7) [5, 8]: 21.0 g and 20.5 g and 21.4 g and 20.6 g; T7/To [5, 8]: 0.875 and 0.941 and 0.760 and 0.586; Tumor 7 days after transplantation (T7) [5, 8]: 10.5 omu and 8.0 omu and 9.5 omu and 8.5 omu; W7/Wo [5, 8]: 1.061 and 1.057 and 1.092 and 1.062; ratio of elongation of life [6]: 100.8%; toxicity ([7]; 100 mg/kg.ip for nine days, judged by increase of body weight, result in words): very low toxicity
[NH3 (iso)]6 [Mo7O22(O2)2] • 5H20 [Compound J] | – | – | – | – | – | – | – | 63.53* % | 0.876±0.037 | same degree of antineoplastic activity as that of HCFU | 40.6±4.1(6) days | 385±152 (8) mg | 146.2 | 385.1±152.3(10 ) mg | 5/10 | 0.135 | T7/To [5, 9]: 0.913 and 0.792 and 0.840 and 0.962; Tumor 7 days after transplantation (T7) [5, 9]: 10.5 omu (2×) and 9.5 omu and 12.5 omu; T/C ([5]; 200 mg/kg ip(×5)): 73.02* %; T7/To ([5]; 200 mg/kg ip(×5), group mean): 1.007±0.087; T7/To [5, 10]: 1.077 and 1.222 and 0.852 and 0.880; Tumor 7 days after transplantation (T7) [5, 10]: 14.0 omu and 11.0 omu (2×) and 11.5 omu
